# From PMC4423513, “Function of glutathione peroxidases in legume root nodules” (Journal of Experimental Botany, 2015)
# Key:
# LjGpx3 = assay: NADPH oxidation at […] nm, thioredoxin-coupled, steady state; assay type: biochemical, Lotus japonicus; conditions: apparent Km, 20 μM poplar Trxh1, 1 μM A. thaliana NADPH-Trx reductase, 0.4 mM NADPH, 30 mM Tris-HCl pH 8.0, 1 mM EDTA
# LjGpx1 = target: T1, LjGpx1 (Lotus japonicus, UniProt Q56VU1); assay: as above; assay type: biochemical; conditions: apparent Km; 20 μM poplar Trxh1, 1 μM A. thaliana NADPH-Trx reductase, 0.4 mM NADPH, 30 mM Tris-HCl pH 8.0, 1 mM EDTA; acyl chains of lipid not defined
# T1 sequence (Q56VU1 72-236): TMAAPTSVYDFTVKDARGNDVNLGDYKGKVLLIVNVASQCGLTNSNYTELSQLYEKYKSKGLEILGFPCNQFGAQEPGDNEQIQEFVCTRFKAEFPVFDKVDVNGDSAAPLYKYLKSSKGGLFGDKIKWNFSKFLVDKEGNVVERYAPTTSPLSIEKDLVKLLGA
Molecule,Km (LjGpx3),Km (LjGpx3; acyl chains of lipid not defined),Km (LjGpx1)
CC(C)(OO)c1ccccc1 [Cumene hydroperoxide],214 µM,–,–
CC(C)(C)OO [t-Butyl hydroperoxide],167 µM,–,–
Phosphatidylcholine hydroperoxide,–,1.6 µM,1.6 µM
